{"source": "patent US20170275650A1", "about": "“ENDOSOMAL ESCAPE DOMAINS FOR […] OF MACR[…] CELLS” (priority 2014, published 2017)", "note": "“Also recorded” adds a separate entry of the source. Where a SMILES comes first, the peptide text is derived from it. Bridges are numbered along the chain shown (N, C = ends). Roman numbers before positions name the chains, in order. Where no end group is shown, it is not given here."}
{"test_system": "GFPβ1-10 expressing H1299c#G3 cells", "assay": "split GFP fluorescence complementation transduction assay (FACS)", "type": "cell-based, human", "details": "30 μM GFPβ11-(S-S)-PTD/CPP peptide, FACS (FIG. 3B, C)", "description": "(§1) Peptide transduction. All transduction experiments were performed in 48-well plates. An optimized protocol was established. First, 15,000 or 20,000 cells were plated in each well. Next day, the indicated peptides were pipetted into eppendorf tubes. Transduction buffer (60% OptiMEM and 40% PBS) was added to peptide (100 μl total volume), directly mixed by pipetting up and down five times and then immediately transferred to cells. All pipetting steps were done in a laminar flow cell culture hood and standardized to 15 min for each plate before transferring the plate of cells to a 37° C. CO2 incubator for 1.5 h before addition of 500 μl DMEM supplemented with 10% FBS and another incubation round for 3.5 h in the 37° C. CO2 incubator (alternatively cells were incubated 2 h with peptides and another 4 h with DMEM, 10% FBS (FIG. 8b, c, d). For the transduction time-course, cells were incubated with peptides in transduction buffer until indicated time-points. All cells were trypzinized and collected in 250 μl OptiMEM without phenol red and analyzed by FACS (GFP, FSC/SSC). 4000 viable cells were analyzed per sample. Data is presented as fold change in fluorescence compared to non-treated cells.\n(§2) To address these problems, the disclosure provides a self-assembling, bimolecular or split GFP fluorescence complementation system that was originally designed to tag and monitor proteins. GFP is composed of 11 β-strands that form a barrel structure allowing for peptidyl backbone cyclization and formation of a fluorescent chromophore. […] Importantly, co-incubation of GFPβ1-10 with the GFPβ11 peptide in trans efficiently reconstitutes GFP fluorescent chromophore bond and GFP fluorescence (FIG. 1a). To study PTD-mediated delivery, cell lines were generated that constitutively expressed the non-fluorescent GFPβ1-10 fragment and treated them in trans with a GFPβ11-PTD/CPP peptide to restore GFP fluorescence.\n(§3) Cell clones of various human cell lines constitutively expressing the non-fluorescent large GFPβ1-10 fragment, including H1299 non-small cell lung carcinoma, HaCaT immortalized keratinocytes, and MDA-MB-231 and MCF7 breast carcinomas, and assayed for reconstituted intracellular GFP fluorescence after treatment with transducible GFPβ11-PTD/CPP peptides by FACS (FIG. 1a). Starting with human H1299 cells, known to be a good model for PTD/CPP-mediated uptake, two GFPβ1-10 expressing clones were generated (c#G3 and c#G4) (FIG. 8a). GFPβ1-10 expressing H1299c#G3 cells were treated for 1.5 h with increasing amounts of transducible GFPβ11-TAT peptide (0-60 μM), followed by an additional 3.5 h in DMEM supplemented with 10% FBS. At 5 h post-addition of GFPβ11-TAT peptide, cells were trypsinized and live cell assayed by FACS."}
{"compound": "RDHMVLHEYVNAAGIT-GGSGGC-(S-S)-CGG-GALFLGFLGAAGSTMGAWSQPKKKRKV (chain 1 RDHMVLHEYVNAAGITGGSGGC; chain 2 CGGGALFLGFLGAAGSTMGAWSQPKKKRKV; also: disulfide to a chain's N/C-terminus) [GFPβ11-(S-S)-MPG]", "GFP fluorescence, head-to-head comparison of PTD/CPP delivery domains": "only slightly above background"}
{"compound": "RDHMVLHEYVNAAGIT-GGSGGC-(S-S)-CGG-KKKKKKKK (chain 1 RDHMVLHEYVNAAGITGGSGGC; chain 2 CGGKKKKKKKK; also: disulfide to a chain's N/C-terminus) [GFPβ11-(S-S)-8xLys]", "GFP fluorescence, head-to-head comparison of PTD/CPP delivery domains": "failed to induce GFP fluorescence to any high degree"}
{"compound": "RDHMVLHEYVNAAGIT-GGSGGC-(S-S)-CGG-LLIILRRRIRKQAHAHSK [GFPβ11-(S-S)-pVEC]", "GFP fluorescence, head-to-head comparison of PTD/CPP delivery domains": "only slightly above background"}
{"compound": "RDHMVLHEYVNAAGIT-GGSGGC-(S-S)-CGG-RRRRRRRR (chain 1 RDHMVLHEYVNAAGITGGSGGC; chain 2 CGGRRRRRRRR; also: disulfide to a chain's N/C-terminus) [GFPβ11-(S-S)-8xArg]", "GFP fluorescence, head-to-head comparison of PTD/CPP delivery domains": "significantly better uptake"}
{"test_system": "GFPβ1-10 expressing H1299c#G3 cells", "assay": "split GFP fluorescence complementation transduction assay (FACS)", "type": "cell-based, human", "details": "30 μM peptide plus 100 μM Chloroquine (FIG. 3C)", "description": "as §1, §2, §3"}
{"compound": "RDHMVLHEYVNAAGIT-GGSGGC-(S-S)-CGG-KKKKKKKK (chain 1 RDHMVLHEYVNAAGITGGSGGC; chain 2 CGGKKKKKKKK; also: disulfide to a chain's N/C-terminus) [GFPβ11-(S-S)-8xLys]", "GFP fluorescence after addition of Chloroquine": "failed to induce GFP fluorescence to any high degree"}
{"test_system": "GFPβ1-10 expressing H1299c#G3 cells", "assay": "split GFP fluorescence complementation transduction assay (FACS)", "type": "cell-based, human", "details": "GFPβ11-(S-S)-TAT-PEG(n)-GWWG series (FIG. 4)", "description": "as §1, §2, §3"}
{"compound": "RDHMVLHEYVNAAGIT-GGSGGC-(S-S)-CGG-RKKRRQRRR-(PEG)12-GWWG (disulfide bond, (PEG)12-GWWG) [GFPβ11-(S-S)-TAT-P12-WW]", "escape efficiency compared to the six PEG unit (P6) spacer": "lower escape efficiency"}
{"compound": "RDHMVLHEYVNAAGIT-GGSGGC-(S-S)-CGG-RKKRRQRRR-(PEG)18-GWWG (disulfide bond, (PEG)18-GWWG) [GFPβ11-(S-S)-TAT-P18-WW]", "escape efficiency compared to the six PEG unit (P6) spacer": "lower escape efficiency"}
{"test_system": "GFPβ1-10 expressing H1299c#G3 cells", "assay": "split GFP fluorescence complementation transduction assay (FACS)", "type": "cell-based, human", "details": "PEG6-spaced EED peptides (FIG. 5A-D)", "description": "as §1, §2, §3"}
{"compound": "RDHMVLHEYVNAAGIT-GGSGGC-(S-S)-CGG-RKKRRQRRR-(PEG)6-GWGGWG [GFPβ11-(S-S)-TAT-P6-WGGW]", "enhancement compared to the -GWWG motif": "decreased the enhancement approximately two-fold"}
{"test_system": "GFPβ1-10 expressing H1299c#G3 cells", "assay": "split GFP fluorescence complementation transduction assay (FACS)", "type": "cell-based, human", "details": "dose-dependent comparison, up to 60 μM, FACS (FIG. 4, 5)", "description": "as §1, §2, §3"}
{"compound": "RDHMVLHEYVNAAGIT-GGSGGC-(5-5)-CGG-RKKRRQRRR-(PEG)6-GWG [GFPβ11-(S-S)-TAT-P6-GWG]", "GFP fluorescence / transduction compared to parental GFPβ11-(S-S)-TAT": "no net effect"}
{"compound": "RDHMVLHEYVNAAGIT-GGSGGC-(S-S)-CGG-RKKRRQRRR-(PEG)6-GFFG (disulfide bond, (PEG)6-GFFG) [GFPβ11-(S-S)-TAT-P6-GFFG]", "GFP fluorescence / transduction compared to parental GFPβ11-(S-S)-TAT": "no net effect"}
{"compound": "RDHMVLHEYVNAAGIT-GGSGGC-(S-S)-CGG-RKKRRQRRR-(PEG)6-GFWG [GFPβ11-(S-S)-TAT-P6-GFWG]", "GFP fluorescence / transduction compared to parental GFPβ11-(S-S)-TAT": "two-fold increase"}
{"compound": "RDHMVLHEYVNAAGIT-GGSGGC-(S-S)-CGG-RKKRRQRRR-(PEG)6-GG [GFPβ11-(S-S)-TAT-P6-GG]", "GFP fluorescence / transduction compared to parental GFPβ11-(S-S)-TAT": "lower uptake than GFPβ11-(S-S)-TAT peptide"}
{"compound": "RDHMVLHEYVNAAGIT-GGSGGC-(S-S)-CGG-RKKRRQRRR-(PEG)6-GWWG [GFPβ11-(S-S)-TAT-P6-GWWG]", "GFP fluorescence / transduction compared to parental GFPβ11-(S-S)-TAT": "retained enhanced cytoplasmic delivery; also recorded: four-fold increase"}
{"compound": "RDHMVLHEYVNAAGIT-GGSGGC-(S-S)-CGG-RKKRRQRRR-(PEG)18-GWWG (disulfide bond, (PEG)18-GWWG) [GFPβ11-(S-S)-TAT-P18-WW]", "GFP fluorescence / transduction compared to parental GFPβ11-(S-S)-TAT": "reduced GFPβ11 delivery below that of the control GFPβ11-(S-S)-TAT"}
{"test_system": "GFPβ1-10 expressing H1299c#G3 cells", "assay": "not given", "type": "cell-based, human", "details": "FACS FSC/SSC and viable cell number relative to untreated control cells", "excerpt": "Cell morphology and cell viability."}
{"compound": "CC[C@H](C)[C@H](NC(=O)CNC(=O)[C@H](C)NC(=O)[C@H](C)NC(=O)[C@H](CC(N)=O)NC(=O)[C@@H](NC(=O)[C@H](Cc1ccc(O)cc1)NC(=O)[C@H](CCC(=O)O)NC(=O)[C@H](Cc1c[nH]cn1)NC(=O)[C@H](CC(C)C)NC(=O)[C@@H](NC(=O)[C@H](CCSC)NC(=O)[C@H](Cc1c[nH]cn1)NC(=O)[C@H](CC(=O)O)NC(=O)[C@@H](N)CCCNC(=N)N)C(C)C)C(C)C)C(=O)N[C@H](C(=O)NCC(=O)NCC(=O)N[C@@H](CO)C(=O)NCC(=O)NCC(=O)N[C@@H](CSSC[C@H](N)C(=O)NCC(=O)NCC(=O)N[C@@H](CCCNC(=N)N)C(=O)N[C@@H](CCCCN)C(=O)N[C@@H](CCCCN)C(=O)N[C@@H](CCCNC(=N)N)C(=O)N[C@@H](CCCNC(=N)N)C(=O)N[C@@H](CCC(N)=O)C(=O)N[C@@H](CCCNC(=N)N)C(=O)N[C@@H](CCCNC(=N)N)C(=O)N[C@@H](CCCNC(=N)N)C(=O)NCC(=O)N[C@@H](Cc1c[nH]c2ccccc12)C(=O)N[C@@H](Cc1c[nH]c2ccccc12)C(=O)NCC(N)=O)C(N)=O)[C@@H](C)O", "note": "[GFPβ11-(S-S)-TAT-WW] (I: H-RDHMVLHEYVNAAGITGGSGGC-NH2 / II: H-CGGRKKRRQRRRGWWG-NH2; disulfide I:22-II:1)", "cytotoxicity / morphological changes": "severely increased cytotoxicity"}
{"compound": "CC[C@H](C)[C@H](NC(=O)CNC(=O)[C@H](C)NC(=O)[C@H](C)NC(=O)[C@H](CC(N)=O)NC(=O)[C@@H](NC(=O)[C@H](Cc1ccc(O)cc1)NC(=O)[C@H](CCC(=O)O)NC(=O)[C@H](Cc1c[nH]cn1)NC(=O)[C@H](CC(C)C)NC(=O)[C@@H](NC(=O)[C@H](CCSC)NC(=O)[C@H](Cc1c[nH]cn1)NC(=O)[C@H](CC(=O)O)NC(=O)[C@@H](N)CCCNC(=N)N)C(C)C)C(C)C)C(=O)N[C@H](C(=O)NCC(=O)NCC(=O)N[C@@H](CO)C(=O)NCC(=O)NCC(=O)N[C@@H](CSSC[C@H](N)C(=O)NCC(=O)NCC(=O)N[C@@H](CCCNC(=N)N)C(=O)N[C@@H](CCCCN)C(=O)N[C@@H](CCCCN)C(=O)N[C@@H](CCCNC(=N)N)C(=O)N[C@@H](CCCNC(=N)N)C(=O)N[C@@H](CCC(N)=O)C(=O)N[C@@H](CCCNC(=N)N)C(=O)N[C@@H](CCCNC(=N)N)C(=O)N[C@@H](CCCNC(=N)N)C(N)=O)C(N)=O)[C@@H](C)O", "note": "[GFPβ11-(S-S)-TAT]", "cytotoxicity / morphological changes": "absence of cytotoxicity"}
{"compound": "CC[C@H](C)[C@H](NC(=O)CNC(=O)[C@H](C)NC(=O)[C@H](C)NC(=O)[C@H](CC(N)=O)NC(=O)[C@@H](NC(=O)[C@H](Cc1ccc(O)cc1)NC(=O)[C@H](CCC(=O)O)NC(=O)[C@H](Cc1c[nH]cn1)NC(=O)[C@H](CC(C)C)NC(=O)[C@@H](NC(=O)[C@H](CCSC)NC(=O)[C@H](Cc1c[nH]cn1)NC(=O)[C@H](CC(=O)O)NC(=O)[C@@H](N)CCCNC(=N)N)C(C)C)C(C)C)C(=O)N[C@H](C(=O)NCC(=O)NCC(=O)N[C@@H](CO)C(=O)NCC(=O)NCC(=O)N[C@@H](CSSC[C@H](N)C(=O)NCC(=O)NCC(=O)N[C@@H](C)C(=O)NCC(=O)N[C@@H](Cc1ccc(O)cc1)C(=O)N[C@@H](CC(C)C)C(=O)N[C@@H](CC(C)C)C(=O)NCC(=O)N[C@@H](CCCCN)C(=O)N[C@H](C(=O)N[C@@H](CC(N)=O)C(=O)N[C@@H](CC(C)C)C(=O)N[C@@H](CCCCN)C(=O)N[C@@H](C)C(=O)N[C@@H](CC(C)C)C(=O)N[C@@H](C)C(=O)N[C@@H](C)C(=O)N[C@@H](CC(C)C)C(=O)N[C@@H](C)C(=O)N[C@@H](CCCCN)C(=O)N[C@@H](CCCCN)C(=O)N[C@H](C(=O)N[C@@H](CC(C)C)C(N)=O)[C@@H](C)CC)[C@@H](C)CC)C(N)=O)[C@@H](C)O", "note": "[GFPβ11-(S-S)-TP10]", "cytotoxicity / morphological changes": "very high level of cytotoxicity; also recorded: high toxicity"}
{"compound": "CC[C@H](C)[C@H](NC(=O)CNC(=O)[C@H](C)NC(=O)[C@H](C)NC(=O)[C@H](CC(N)=O)NC(=O)[C@@H](NC(=O)[C@H](Cc1ccc(O)cc1)NC(=O)[C@H](CCC(=O)O)NC(=O)[C@H](Cc1c[nH]cn1)NC(=O)[C@H](CC(C)C)NC(=O)[C@@H](NC(=O)[C@H](CCSC)NC(=O)[C@H](Cc1c[nH]cn1)NC(=O)[C@H](CC(=O)O)NC(=O)[C@@H](N)CCCNC(=N)N)C(C)C)C(C)C)C(=O)N[C@H](C(=O)NCC(=O)NCC(=O)N[C@@H](CO)C(=O)NCC(=O)NCC(=O)N[C@@H](CCCNC(=N)N)C(=O)N[C@@H](CCCCN)C(=O)N[C@@H](CCCCN)C(=O)N[C@@H](CCCNC(=N)N)C(=O)N[C@@H](CCCNC(=N)N)C(=O)N[C@@H](CCC(N)=O)C(=O)N[C@@H](CCCNC(=N)N)C(=O)N[C@@H](CCCNC(=N)N)C(=O)N[C@@H](CCCNC(=N)N)C(N)=O)[C@@H](C)O", "note": "[GFPβ11-TAT] (H-RDHMVLHEYVNAAGITGGSGGRKKRRQRRR-NH2)", "cytotoxicity / morphological changes": "did not display any cytotoxicity or morphological changes"}
